According to ChEMBL document CHEMBL1201862, “PubChem BioAssay data set” (2004):
Calls of active or inactive are those of the source.

How the values were obtained:
cells = format: functional, cell-based; conditions: HEK-CNG
CHO = CHO cell viability loss, potency – luminescence, cytotoxicity control for TLR9-MyD88 binding inhibitor project, dose response (AID 588339); format: functional, cell-based, hamster; conditions: Cricetulus griseus;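 also: CHO cells stably coexpressing TLR9 and MyD88 fusions from primary screen; compound exposure lasted 48 hours before viability readout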
[1] = non-specific 3'UTR reporter inhibition in Clone20-Shn3RL – cell-based, Renilla luciferase, cherry-picked, counter-screen for Shn3 inhibitor project, dose response (AID 624133); format: functional
Galanin receptor type 3 = biological target: T1, Galanin receptor type 3 (Homo sapiens, UniProt O60755); experiment: Fluorescence-based cell-based primary high throughput dose response assay to identify antagonists of the Galanin Receptor 3 (GalR3).; format: functional
T1 sequence (O60755 whole entry): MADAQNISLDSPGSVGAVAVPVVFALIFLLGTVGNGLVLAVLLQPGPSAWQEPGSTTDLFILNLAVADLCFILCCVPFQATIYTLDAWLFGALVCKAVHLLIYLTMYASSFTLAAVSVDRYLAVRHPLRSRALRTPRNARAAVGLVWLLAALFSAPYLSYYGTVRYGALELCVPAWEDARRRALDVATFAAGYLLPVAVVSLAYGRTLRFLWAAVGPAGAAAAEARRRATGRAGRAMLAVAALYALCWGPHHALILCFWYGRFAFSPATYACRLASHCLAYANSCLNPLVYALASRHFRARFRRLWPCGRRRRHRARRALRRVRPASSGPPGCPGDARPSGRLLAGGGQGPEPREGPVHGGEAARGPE

Beta Lactamase [2] = biological target: T2, Beta Lactamase (Pseudomonas aeruginosa, UniProt Q932Y6); experiment: BLA reporter interference, concentration series – BLA reporter cells, FRET fluorescence, artefact control for TLR9-MyD88 binding inhibitor project, dose response (AID 588341); format: cell-based;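 also: cell based assay in CHO-K1 cells stably expressing beta-lactamase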
T2 sequence (Q932Y6 whole entry): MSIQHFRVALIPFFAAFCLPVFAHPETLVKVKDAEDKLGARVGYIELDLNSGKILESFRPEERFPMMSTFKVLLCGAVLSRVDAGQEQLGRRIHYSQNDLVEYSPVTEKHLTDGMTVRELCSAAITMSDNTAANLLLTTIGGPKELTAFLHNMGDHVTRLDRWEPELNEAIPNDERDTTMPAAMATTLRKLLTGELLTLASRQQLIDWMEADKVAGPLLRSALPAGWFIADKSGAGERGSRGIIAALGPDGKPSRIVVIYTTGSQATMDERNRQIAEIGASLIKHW

[3] = biological target: T3, Microphthalmia-associated transcription factor (Homo sapiens, UniProt O75030); experiment: reducers of TRPM1 reporter luminescence, concentration series – cell-based, SK-MEL-5, cherry-picked, set 3, MITF inhibitor project, dose response (AID 493073); format: functional;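 also: SK-MEL-5 melanoma cells with luciferase driven by the MITF target TRPM1 promoter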
T3 sequence (O75030 whole entry): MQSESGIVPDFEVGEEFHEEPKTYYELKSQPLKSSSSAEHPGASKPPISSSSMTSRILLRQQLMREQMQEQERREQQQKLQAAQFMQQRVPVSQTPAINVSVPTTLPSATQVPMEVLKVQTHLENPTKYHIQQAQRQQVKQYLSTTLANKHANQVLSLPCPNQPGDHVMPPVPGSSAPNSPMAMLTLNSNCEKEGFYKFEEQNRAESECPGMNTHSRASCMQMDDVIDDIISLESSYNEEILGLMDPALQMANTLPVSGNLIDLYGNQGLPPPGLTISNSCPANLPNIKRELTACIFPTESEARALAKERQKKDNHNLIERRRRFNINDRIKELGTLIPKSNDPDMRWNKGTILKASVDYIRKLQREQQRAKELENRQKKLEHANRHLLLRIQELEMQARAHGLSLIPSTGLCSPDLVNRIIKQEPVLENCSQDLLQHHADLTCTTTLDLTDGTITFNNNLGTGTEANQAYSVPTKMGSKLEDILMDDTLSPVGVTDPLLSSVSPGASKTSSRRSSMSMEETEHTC

Beta Lactamase [4] = biological target: T2, Beta Lactamase; experiment: BLA reporter interference, concentration series – BLA reporter cells, FRET fluorescence, artefact control for NOD2-RIPK2 interaction inhibitor project, dose response (AID 651552); format: functional, cell-based
[5] = reduction of Shn3 3'UTR-driven luciferase in osteoblasts – cell-based, Clone20 osteoblasts, firefly luciferase, cherry-picked, dose response (AID 624132); format: functional;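 also: firefly luciferase luminescence from reporter carrying the Shn3 3'UTR in osteoblasts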
[6] = Fluorescence-based cell-based high throughput dose response assay for inhibitors of the interaction of nucleotide-binding oligomerization domain containing 2 (NOD2) and the receptor-interacting serine-threonine kinase 2 (RIPK2).; format: functional; conditions: Homo sapiens
[7] = biological target: DNA damage-inducible transcript 3 protein (Mus musculus, UniProt P35639); format: functional, Cricetulus griseus
Chain of DNA damage-inducible transcript 3 protein (P35639 whole entry): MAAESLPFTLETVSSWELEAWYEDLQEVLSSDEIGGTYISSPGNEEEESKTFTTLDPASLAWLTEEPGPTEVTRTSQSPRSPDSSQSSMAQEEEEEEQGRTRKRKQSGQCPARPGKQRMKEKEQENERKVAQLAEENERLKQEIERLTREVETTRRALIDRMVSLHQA

[8] = loss of viability in HepG2 cells – cell-based, CellTiter-Glo, cherry-picked, cytotoxicity control for Shn3 inhibitor project, dose response (AID 624134); format: functional
Mucolipin-3 = biological target: T4, Mucolipin-3 (Homo sapiens, UniProt Q8TDD5); experiment: Fluorescence counterscreen assay for […] agonists: dose response cell-based high-throughput screening assay to identify agonists of the transient receptor potential channel ML3 (TRPML3). [Related pubchem assays: 1424, 1448 ]; format: functional
T4 sequence (Q8TDD5 whole entry): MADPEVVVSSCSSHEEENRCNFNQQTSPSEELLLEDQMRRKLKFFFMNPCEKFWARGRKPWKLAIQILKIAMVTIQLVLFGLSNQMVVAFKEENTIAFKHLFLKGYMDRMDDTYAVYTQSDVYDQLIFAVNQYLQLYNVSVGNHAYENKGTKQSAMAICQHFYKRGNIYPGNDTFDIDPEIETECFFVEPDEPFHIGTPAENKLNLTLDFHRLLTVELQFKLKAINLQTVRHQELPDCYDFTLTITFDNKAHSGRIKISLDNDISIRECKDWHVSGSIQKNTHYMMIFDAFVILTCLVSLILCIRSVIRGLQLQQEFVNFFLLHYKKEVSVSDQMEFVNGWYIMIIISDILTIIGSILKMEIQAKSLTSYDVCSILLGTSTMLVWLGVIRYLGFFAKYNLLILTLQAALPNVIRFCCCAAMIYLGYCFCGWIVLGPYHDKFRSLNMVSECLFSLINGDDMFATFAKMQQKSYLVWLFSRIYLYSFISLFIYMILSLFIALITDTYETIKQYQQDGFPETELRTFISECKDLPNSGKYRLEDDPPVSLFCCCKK

Ion channel NompC = Ion channel NompC (Danio rerio, UniProt Q7T1G6); experiment: Dose response cell-based high-throughput screening assay for agonists of the transient receptor potential channel N1 (TRPN1). [Related pubchem assays (depositor defined):AID1424, AID1448]; format: functional
Chain of Ion channel NompC (Q7T1G6 whole entry): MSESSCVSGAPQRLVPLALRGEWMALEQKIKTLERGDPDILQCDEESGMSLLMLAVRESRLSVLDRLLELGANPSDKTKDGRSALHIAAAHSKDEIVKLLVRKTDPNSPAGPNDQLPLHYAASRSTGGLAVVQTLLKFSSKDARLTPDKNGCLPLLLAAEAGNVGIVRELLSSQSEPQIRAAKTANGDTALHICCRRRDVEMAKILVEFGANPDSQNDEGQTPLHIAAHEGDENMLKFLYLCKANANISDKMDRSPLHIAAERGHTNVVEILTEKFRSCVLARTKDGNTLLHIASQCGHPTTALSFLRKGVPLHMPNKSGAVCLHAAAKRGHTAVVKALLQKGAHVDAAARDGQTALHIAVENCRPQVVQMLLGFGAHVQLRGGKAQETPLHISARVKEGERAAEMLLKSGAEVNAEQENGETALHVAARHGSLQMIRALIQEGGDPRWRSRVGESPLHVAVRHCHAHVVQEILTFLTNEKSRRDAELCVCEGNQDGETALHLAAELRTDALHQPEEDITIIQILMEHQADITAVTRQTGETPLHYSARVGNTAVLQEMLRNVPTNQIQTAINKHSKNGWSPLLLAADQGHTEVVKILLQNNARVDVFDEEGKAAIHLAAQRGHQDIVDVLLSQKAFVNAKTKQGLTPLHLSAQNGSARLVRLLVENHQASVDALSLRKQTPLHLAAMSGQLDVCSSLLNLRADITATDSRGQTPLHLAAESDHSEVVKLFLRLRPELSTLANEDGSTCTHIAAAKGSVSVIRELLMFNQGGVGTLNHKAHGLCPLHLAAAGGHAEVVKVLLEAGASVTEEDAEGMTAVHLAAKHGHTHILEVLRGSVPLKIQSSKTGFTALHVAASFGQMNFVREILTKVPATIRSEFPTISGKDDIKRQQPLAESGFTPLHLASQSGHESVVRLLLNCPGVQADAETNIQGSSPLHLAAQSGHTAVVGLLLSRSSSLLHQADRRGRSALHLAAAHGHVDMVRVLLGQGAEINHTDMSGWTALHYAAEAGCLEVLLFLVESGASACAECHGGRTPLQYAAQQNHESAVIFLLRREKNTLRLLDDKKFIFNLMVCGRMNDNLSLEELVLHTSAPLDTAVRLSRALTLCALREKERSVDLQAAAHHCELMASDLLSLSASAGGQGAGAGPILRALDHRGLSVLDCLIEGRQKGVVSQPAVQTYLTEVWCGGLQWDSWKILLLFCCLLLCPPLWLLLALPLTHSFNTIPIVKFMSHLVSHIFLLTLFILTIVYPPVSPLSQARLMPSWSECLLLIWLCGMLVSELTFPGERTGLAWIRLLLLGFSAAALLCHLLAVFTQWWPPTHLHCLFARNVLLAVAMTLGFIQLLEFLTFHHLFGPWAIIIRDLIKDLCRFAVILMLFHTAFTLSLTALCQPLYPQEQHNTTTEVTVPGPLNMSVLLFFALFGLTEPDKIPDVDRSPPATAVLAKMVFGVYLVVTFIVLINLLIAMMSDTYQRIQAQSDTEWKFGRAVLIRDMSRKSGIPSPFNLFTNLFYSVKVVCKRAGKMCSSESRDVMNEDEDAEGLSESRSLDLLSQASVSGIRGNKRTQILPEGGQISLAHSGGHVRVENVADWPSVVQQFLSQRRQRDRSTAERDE

Galanin receptor type 2 = Galanin receptor type 2 (Homo sapiens, UniProt O43603); experiment: Dose Response cell-based high-throughput screening assay to identify antagonists of galanin receptor 2 (GALR2). [Related pubchem assays: 828, 866 ]; format: functional
Chain of Galanin receptor type 2 (O43603 whole entry): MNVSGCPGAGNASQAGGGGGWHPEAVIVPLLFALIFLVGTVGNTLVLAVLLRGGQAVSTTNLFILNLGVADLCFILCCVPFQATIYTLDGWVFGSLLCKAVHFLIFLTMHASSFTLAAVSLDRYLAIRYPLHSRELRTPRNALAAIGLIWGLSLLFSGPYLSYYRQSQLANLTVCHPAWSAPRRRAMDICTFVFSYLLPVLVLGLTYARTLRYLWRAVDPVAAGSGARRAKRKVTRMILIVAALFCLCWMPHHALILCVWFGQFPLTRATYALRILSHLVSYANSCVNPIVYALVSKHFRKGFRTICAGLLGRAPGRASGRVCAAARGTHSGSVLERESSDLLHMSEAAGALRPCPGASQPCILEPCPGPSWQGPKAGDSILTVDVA

INS1 = experiment: INS-1E survival protection against cytokine death – cell-based, luminescence, retest, dose response (AID 449756); format: functional; conditions: Rattus norvegicus;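 also: cell death triggered by IL-1 beta plus TNF-alpha plus IFN-gamma mixture; protective hits raise ATP signal compared with cytokine alone wells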
[9] = biological target: T5, Nucleotide-binding oligomerization domain-containing protein 2 (Homo sapiens, UniProt Q9HC29); experiment: PubChem AID 2334; format: functional
T5 sequence (Q9HC29 whole entry, the tested form may be a part): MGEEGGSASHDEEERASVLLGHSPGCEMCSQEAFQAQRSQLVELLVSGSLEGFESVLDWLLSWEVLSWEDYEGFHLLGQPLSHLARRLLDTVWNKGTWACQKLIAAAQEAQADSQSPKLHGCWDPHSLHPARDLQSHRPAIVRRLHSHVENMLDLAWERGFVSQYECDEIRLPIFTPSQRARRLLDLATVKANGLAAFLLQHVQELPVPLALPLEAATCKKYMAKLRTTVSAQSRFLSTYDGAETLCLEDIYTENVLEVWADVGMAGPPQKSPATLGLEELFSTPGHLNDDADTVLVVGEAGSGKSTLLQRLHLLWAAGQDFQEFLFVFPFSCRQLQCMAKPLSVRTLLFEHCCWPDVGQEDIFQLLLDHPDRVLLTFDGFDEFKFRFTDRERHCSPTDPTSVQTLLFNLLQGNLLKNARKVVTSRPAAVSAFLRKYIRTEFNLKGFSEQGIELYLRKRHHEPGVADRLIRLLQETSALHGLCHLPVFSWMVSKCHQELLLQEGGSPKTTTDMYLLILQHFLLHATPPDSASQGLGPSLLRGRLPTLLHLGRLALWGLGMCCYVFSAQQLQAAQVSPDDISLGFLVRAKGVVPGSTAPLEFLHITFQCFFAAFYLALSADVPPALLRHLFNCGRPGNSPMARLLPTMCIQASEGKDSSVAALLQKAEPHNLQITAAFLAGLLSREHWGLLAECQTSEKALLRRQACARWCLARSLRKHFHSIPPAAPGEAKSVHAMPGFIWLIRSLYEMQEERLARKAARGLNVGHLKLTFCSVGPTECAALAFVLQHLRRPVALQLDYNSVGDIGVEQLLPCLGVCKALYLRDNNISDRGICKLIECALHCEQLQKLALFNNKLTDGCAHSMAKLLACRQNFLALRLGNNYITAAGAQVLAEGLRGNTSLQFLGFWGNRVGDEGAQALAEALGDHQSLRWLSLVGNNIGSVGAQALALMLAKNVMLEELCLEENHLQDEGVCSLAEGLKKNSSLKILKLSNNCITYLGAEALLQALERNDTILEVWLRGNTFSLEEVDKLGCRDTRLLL

[10] = biological target: T5, Nucleotide-binding oligomerization domain-containing protein 2; experiment: inhibition of NOD2 signaling – set 2, SAR follow-up (AID 2475); format: functional
Tumor necrosis factor [11] = biological target: T6, Tumor necrosis factor (Homo sapiens, UniProt P01375); experiment: analog potency on TNFa NF-kB signaling – cell-based, revised, SAR follow-up (AID 2337); format: functional
T6 sequence (P01375 whole entry): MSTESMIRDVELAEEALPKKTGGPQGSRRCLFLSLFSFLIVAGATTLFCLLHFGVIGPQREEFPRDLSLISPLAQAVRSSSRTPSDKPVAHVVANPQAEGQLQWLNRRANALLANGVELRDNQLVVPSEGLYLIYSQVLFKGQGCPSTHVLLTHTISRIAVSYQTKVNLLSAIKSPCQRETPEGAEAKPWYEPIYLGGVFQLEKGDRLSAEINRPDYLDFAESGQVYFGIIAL

HEK293 [12] = experiment: cells; format: functional, cell-based; conditions: Homo sapiens
Tumor necrosis factor [13] = biological target: T6, Tumor necrosis factor; experiment: analog potency on TNFa NF-kB signaling – cell-based, set 2, SAR follow-up (AID 2483); format: functional
[14] = biological target: Transitional endoplasmic reticulum ATPase (Homo sapiens, UniProt P55072); experiment: p97 ATPase inhibitors, dose response, biochemical (AID 1534)
HEK293 [15] = experiment: cells; format: functional, cell-based; conditions: Homo sapiens; remark: listed apart in the source
HEK293 [16] = experiment: SAR analysis of compounds that are cytotoxic to HEK293 - Set 2. [Related pubchem assays (depositor defined):AID1575, AID1578, AID1849, AID2001, AID2333, AID2334, AID2335, AID2337, AID2800]; format: functional, cell-based; conditions: Homo sapiens
[17] = biological target: T7, Nucleotide-binding oligomerization domain-containing protein 1 (Homo sapiens, UniProt Q9Y239); experiment: blockers of NOD1 pathway activity – revised, SAR follow-up (AID 2333); format: functional
T7 sequence (Q9Y239 whole entry): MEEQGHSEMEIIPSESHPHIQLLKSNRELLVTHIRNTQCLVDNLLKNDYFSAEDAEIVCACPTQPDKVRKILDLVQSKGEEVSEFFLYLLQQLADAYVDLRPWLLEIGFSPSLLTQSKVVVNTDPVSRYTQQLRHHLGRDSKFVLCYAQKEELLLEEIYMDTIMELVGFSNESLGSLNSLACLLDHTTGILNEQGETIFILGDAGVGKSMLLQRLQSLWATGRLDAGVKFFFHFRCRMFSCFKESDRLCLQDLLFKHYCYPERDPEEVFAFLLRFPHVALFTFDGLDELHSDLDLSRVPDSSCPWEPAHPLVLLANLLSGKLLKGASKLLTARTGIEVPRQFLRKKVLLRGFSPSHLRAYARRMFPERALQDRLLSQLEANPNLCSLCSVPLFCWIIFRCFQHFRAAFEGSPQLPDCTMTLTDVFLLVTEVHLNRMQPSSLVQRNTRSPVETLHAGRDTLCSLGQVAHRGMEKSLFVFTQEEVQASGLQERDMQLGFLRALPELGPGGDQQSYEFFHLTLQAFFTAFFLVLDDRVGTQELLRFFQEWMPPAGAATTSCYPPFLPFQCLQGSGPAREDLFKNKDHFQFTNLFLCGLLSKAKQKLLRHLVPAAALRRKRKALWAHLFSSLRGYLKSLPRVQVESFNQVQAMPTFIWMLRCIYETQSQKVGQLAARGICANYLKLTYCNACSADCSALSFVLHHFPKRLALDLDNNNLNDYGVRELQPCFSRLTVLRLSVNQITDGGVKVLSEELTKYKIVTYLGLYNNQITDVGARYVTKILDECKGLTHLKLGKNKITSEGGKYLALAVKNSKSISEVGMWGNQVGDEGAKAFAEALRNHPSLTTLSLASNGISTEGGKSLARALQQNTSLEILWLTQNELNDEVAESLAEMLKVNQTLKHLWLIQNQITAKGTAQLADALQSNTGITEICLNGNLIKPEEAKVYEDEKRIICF

[18] = biological target: T5, Nucleotide-binding oligomerization domain-containing protein 2; experiment: inhibition of NOD2-driven NF-kB reporter – cell-based, luminescence, uHTS, HEK293 (AID 1566); format: functional
HEK293 [19] = experiment: NOD2 signaling inhibitors in MDP-stimulated cells, cell-based, uHTS, luminescence (AID 2001); format: functional; conditions: Homo sapiens
[20] = biological target: Transitional endoplasmic reticulum ATPase (Homo sapiens, UniProt P55072, C522A); experiment: C522A mutant p97 ATPase inhibitors, dose response, counter-screen for p97 inhibitor project, biochemical, luminescence (AID 1544)
Chain of Transitional endoplasmic reticulum ATPase (Homo sapiens, UniProt P55072, C522A) (P55072 2-806 C522A limits assumed): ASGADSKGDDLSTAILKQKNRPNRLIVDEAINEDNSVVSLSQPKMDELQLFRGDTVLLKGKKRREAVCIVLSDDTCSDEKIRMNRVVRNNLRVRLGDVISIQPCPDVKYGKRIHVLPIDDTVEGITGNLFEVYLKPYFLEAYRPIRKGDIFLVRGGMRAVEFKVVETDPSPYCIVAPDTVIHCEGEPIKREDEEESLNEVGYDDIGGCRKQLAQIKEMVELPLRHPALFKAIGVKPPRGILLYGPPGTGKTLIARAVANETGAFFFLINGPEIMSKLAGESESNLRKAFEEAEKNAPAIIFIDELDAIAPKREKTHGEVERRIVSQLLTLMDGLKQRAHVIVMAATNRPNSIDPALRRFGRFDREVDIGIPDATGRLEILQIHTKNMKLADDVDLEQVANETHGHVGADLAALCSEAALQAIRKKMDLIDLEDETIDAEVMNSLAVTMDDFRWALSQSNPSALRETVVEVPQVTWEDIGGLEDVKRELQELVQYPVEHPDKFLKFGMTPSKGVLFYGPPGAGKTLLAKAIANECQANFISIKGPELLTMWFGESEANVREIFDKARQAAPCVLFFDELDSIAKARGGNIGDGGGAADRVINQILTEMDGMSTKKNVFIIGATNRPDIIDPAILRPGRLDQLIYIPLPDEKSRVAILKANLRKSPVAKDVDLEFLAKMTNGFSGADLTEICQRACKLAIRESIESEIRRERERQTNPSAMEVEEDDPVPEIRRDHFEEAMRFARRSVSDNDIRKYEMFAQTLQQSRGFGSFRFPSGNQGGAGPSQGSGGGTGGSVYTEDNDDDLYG

HEK293 [21] = experiment: inhibition of NOD1-driven NF-kB reporter – cell-based, luminescence, uHTS, primary screen (AID 1578); format: functional; conditions: Homo sapiens
HEK293 [22] = experiment: cells; format: functional, cell-based; conditions: Homo sapiens; remark: listed apart in the source
HEK293 [23] = experiment: cells; conditions: Homo sapiens
[24] = biological target: T7, Nucleotide-binding oligomerization domain-containing protein 1; experiment: SAR analysis of compounds that inhibit NOD1 - Set 2. [Related pubchem assays (depositor defined):AID1566, AID1575, AID1578, AID1849, AID1852, AID2333, AID2335, AID2798]; format: functional

CS(=O)(=O)c1nc(-c2ccc(F)cc2)cc(C(F)(F)F)n1
EC50 (cells): > 29.9 µM (inactive)
IC50 (CHO): 3.27 µM (active)
AC50 [1]: 7.39 µM (active)
IC50 (Galanin receptor type 3): > 29.9 µM (inactive)
IC50 (Beta Lactamase [2]): 27.4 µM (inactive)
AC50 [3]: 7.2 µM (active)
IC50 (Beta Lactamase [4]): 17.7 µM (inactive)
AC50 [5]: 2.72 µM (active)
IC50 [6]: 2.79 µM (active)
Absolute IC50 (CHOP) [7]: 10 µM
AC50 [8]: 24.5 µM (active)

C1=C(CCNc2[nH]cnc3c4ccccc4nc2-3)CCCC1
EC50 (cells): > 29.9 µM (inactive)
IC50 (Galanin receptor type 3): 0.383 µM (active)
EC50 (Mucolipin-3): > 29.9 µM (not active)
EC50 (Ion channel NompC): > 29.9 µM (inactive)
IC50 (Galanin receptor type 2): > 42 µM (not active)
AC50 (INS1): 0.219 µM (active)

Cc1ccc(C)c(SCC(=O)OC/C(O)=C(\C#N)c2nc3ccccc3[nH]2)c1
IC50 [9]: > 20 µM (inactive)
IC50 [10]: 4.21 µM (active)
IC50 (Tumor necrosis factor [11]): > 20 µM (inactive)
IC50 (HEK293 [12]): > 20 µM (inactive)
IC50 (Tumor necrosis factor [13]): > 20 µM (inactive)
IC50 [14]: > 50 µM (not active)
IC50 (HEK293 [15]): > 20 µM (inactive)
IC50 (HEK293 [16]): > 20 µM (inactive)
IC50 [17]: > 20 µM (inactive)
EC50 [18]: > 20 µM (inactive)
IC50 (HEK293 [19]): 4.92 µM (inactive)
IC50 [20]: > 50 µM (not active)
EC50 (HEK293 [21]): > 20 µM (inactive)
IC50 (HEK293 [22]): > 20 µM (inactive)
IC50 (HEK293 [23]): > 20 µM (inactive)
IC50 [24]: 4.55 µM (active)
